The values that follow come from patent US9340536B2, “Multicomponent crystals comprising dasatinib and selected co-crystal formers” (BASF SE, priority 2012, dated 2016).

One may read the solubility as the dissolved amount per volume that the medium holds. A low value points to a poorly soluble substance.

The nature of series [1]: Aqueous solubility determination (suspension in pure water, HPLC). Conditions: 25 °C.
Procedure: Solubility Determinations:
Solubility determinations were carried out in pure water at 25±2° C. Suspensions with about 10 mg co-crystal in 0.5 mL water were prepared an equilibrated for two hours before the solution phase was filtered off and tested by HPLC.
HPLC was carried out on an Agilent 1100 HPLC chromatograph equipped with a UV-vis detection unit. […] The column type used was a Waters XTerra MS C18, 250×4.6 mm, 5 μm (FK-CC14). The method as referenced above is an isocratic method using an aqueous ammonium acetate/acetic acid and methanol with a ratio of 55/45. The applied flow rate was 1.0 mL per minute, the injection volume was 20 microliter and the detection wavelength was 321 nm.
For series [2] the following is noted: estimated by Roy et al., Cryst. Growth & Design 2012 (12), 2122-2126; cited from earlier work.

In brackets after ≈: the same amount, converted by molar mass.

In series [1], `Cc1nc(Nc2ncc(C(=O)Nc3c(C)cccc3Cl)s2)cc(N2CCN(CCO)CC2)n1` [Dasatinib free base anhydrous form, N-(2-chloro-6-methylphenyl)-2-[[6-[4-(2-hydroxyethyl)-1-piperazinyl]-2-methyl-4-pyrimidinyl]amino]-5-thiazolecarboxamide] displayed a solubility of roughly 0.9 µg/mL (≈ 1.84 µM). Moreover, the “ratio of the equilibrium solubility of anhydrous Dasatinib free base to Dasatinib monohydrate free base” value in series [2] was “about 2.4”. Turning to `Cc1nc(Nc2ncc(C(=O)Nc3c(C)cccc3Cl)s2)cc(N2CCN(CCO)CC2)n1` [Dasatinib free base monohydrate, N-(2-chloro-6-methylphenyl)-2-[[6-[4-(2-hydroxyethyl)-1-piperazinyl]-2-methyl-4-pyrimidinyl]amino]-5-thiazolecarboxamide], the solubility at 2 h in series [1] (pure water, thermodynamic from solid) came out at 0.36 µg/mL.
